Data published in patent US9725459B2, “3-oxo-tetrahydro-furo[3,2-B]pyrrol-4(5H)-yl) derivatives I” (GRÜNENTHAL GMBH, priority 2014, dated 2017).

How the values were obtained:
Assay type in all cases: biochemical
[1] = target: human cathepsin K (CatK) (Homo sapiens (Human), UniProt P43235); assay: CatK functional enzyme assay; conditions: for Ki: recombinant human CatK, substrate Z-FR-AMC 40 μM, pH 5.5, Ki by Cheng Prusoff equation, read-out: hCatK, Ki
Procedure, shortened: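 Recombinant human enzymes in 50 mM NaOAc, 10 mM EDTA, 1 mM DTT, 0.01% Triton X-100, pH 5.5, 10 min at RT. CatK: 0.00175 mU/well with 40 μM Z-FR-AMC; CatL: 0.000874 mU/well with 40 μM Z-VVR-AMC. AMC fluorescence read; IC50 converted to Ki via Cheng–Prusoff.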

[2] = target: human cathepsin L (CatL) (Homo sapiens (Human), UniProt P07711); assay: CatL functional enzyme assay; conditions: read-out: hCatL, inhibition [%] at 31.6 μM
Chain of human cathepsin L (CatL) (P07711 114-333): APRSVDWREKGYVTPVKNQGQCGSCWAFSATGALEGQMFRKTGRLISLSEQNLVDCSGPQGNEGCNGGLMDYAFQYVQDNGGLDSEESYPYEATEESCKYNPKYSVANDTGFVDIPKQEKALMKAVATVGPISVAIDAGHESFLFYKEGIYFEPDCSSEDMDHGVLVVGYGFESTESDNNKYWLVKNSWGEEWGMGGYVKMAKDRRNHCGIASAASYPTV

[3] = target: human cathepsin S (CatS) (Homo sapiens (Human), UniProt P25774); assay: CatS functional enzyme assay; conditions: for Selectivity Ki(hCatS)/Ki(hCatK): ratio Ki(hCatS)/Ki(hCatK); for Ki: recombinant human CatS, substrate Z-VVR-AMC 5 μM, pH 6.5, Ki by Cheng Prusoff equation, read-out: hCatS, Ki; for inhibition at 10 µM: read-out: hCatS, inhibition [%] at 10 μM
Chain of human cathepsin S (CatS) (P25774 115-331): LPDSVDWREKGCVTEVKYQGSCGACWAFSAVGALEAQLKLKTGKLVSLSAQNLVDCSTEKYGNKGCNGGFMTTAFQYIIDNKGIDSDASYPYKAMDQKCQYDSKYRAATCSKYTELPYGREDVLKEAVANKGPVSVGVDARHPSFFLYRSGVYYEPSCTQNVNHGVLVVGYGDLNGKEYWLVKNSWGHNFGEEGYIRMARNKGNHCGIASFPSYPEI
Procedure, shortened: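 Recombinant human enzymes were incubated 10 min at RT with AMC substrate: CatS 0.0007 mU/well with Z-VVR-AMC 5 µM; CatK 0.00175 mU/well with Z-FR-AMC 40 µM; CatL 0.000874 mU/well with Z-VVR-AMC 40 µM. Fluorescence gave IC50, converted to Ki by Cheng-Prusoff.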

Chain of human cathepsin K (CatK) (P43235 115-329): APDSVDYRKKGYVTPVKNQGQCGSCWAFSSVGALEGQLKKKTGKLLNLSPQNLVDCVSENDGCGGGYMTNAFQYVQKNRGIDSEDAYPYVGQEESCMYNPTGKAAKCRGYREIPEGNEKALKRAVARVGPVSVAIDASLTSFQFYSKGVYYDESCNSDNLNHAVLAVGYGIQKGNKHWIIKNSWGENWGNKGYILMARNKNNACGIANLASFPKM

SMILES | Ki [1] | inhibition at 31.6 µM [2] | Selectivity Ki(hCatS)/Ki(hCatK) [3] | Ki [3] | inhibition at 10 µM ([1]; read-out: hCatK, inhibition [%] at 10 μM) | inhibition at 10 µM [3]
O=C(N[C@H](C(=O)N1C[C@H](Cl)[C@H]2OCC(=O)[C@H]21)C1CCCCC1)c1ccc(-c2cc(C3CC3)cnn2)s1 [Example 74, N-((S)-2-((3aS,6S,6aS)-6-chloro-3-oxotetrahydro-2H-furo[3,2-b]pyrrol-4(5H)-yl)-1-cyclohexyl-2-oxoethyl)-5-(5-cyclopropylpyridazin-3-yl)thiophene-2-carboxamide] | 22 nM | 19% | 0.3 | 7 nM |  | 
Cc1cnnc(-c2ccc(C(=O)N[C@H](C(=O)N3C[C@H](Cl)[C@H]4OCC(=O)[C@H]43)C3CCCCC3)s2)c1 [Example 44, N-((S)-2-((3aS,6S,6aS)-6-chloro-3-oxotetrahydro-2H-furo[3,2-b]pyrrol-4(5H)-yl)-1-cyclohexyl-2-oxoethyl)-5-(5-methylpyridazin-3-yl)thiophene-2-carboxamide] | 15 nM | 33% | 4.7 | 70 nM |  | 
O=C(N[C@H](C(=O)N1C[C@H](Cl)[C@H]2OCC(=O)[C@H]21)C1CCCCC1)c1ccc(-c2ccc(C(F)(F)F)nc2)s1 [Example 62, N-((S)-2-((3aS,6S,6aS)-6-chloro-3-oxotetrahydro-2H-furo[3,2-b]pyrrol-4(5H)-yl)-1-cyclohexyl-2-oxoethyl)-5-(6-(trifluoromethyl)pyridin-3-yl)thiophene-2-carboxamide] | 58 nM | 25% | 10.0 | 580 nM |  | 
Cc1nc(-c2cccnc2)sc1C(=O)N[C@H](C(=O)N1C[C@H](Cl)[C@H]2OCC(=O)[C@H]21)C1CCCCC1 [Example 14, N-((S)-2-((3aS,6S,6aS)-6-chloro-3-oxotetrahydro-2H-furo[3,2-b]pyrrol-4(5H)-yl)-1-cyclohexyl-2-oxoethyl)-4-methyl-2-(pyridin-3-yl)thiazole-5-carboxamide] |  | 21% |  |  | 88% | 70%
Cc1nc(-c2cnccn2)sc1C(=O)N[C@H](C(=O)N1C[C@H](Cl)[C@H]2OCC(=O)[C@H]21)C1CCCCC1 [Example 22, N-((S)-2-((3aS,6S,6aS)-6-chloro-3-oxotetrahydro-2H-furo[3,2-b]pyrrol-4(5H)-yl)-1-cyclohexyl-2-oxoethyl)-4-methyl-2-(pyrazin-2-yl)thiazole-5-carboxamide] | 37 nM | 17% |  |  |  | 73%
O=C(N[C@H](C(=O)N1C[C@H](Cl)[C@H]2OCC(=O)[C@H]21)C1CCCCC1)c1ncc(-c2ccncn2)s1 [Example 26, N-((S)-2-((3aS,6S,6aS)-6-chloro-3-oxotetrahydro-2H-furo[3,2-b]pyrrol-4(5H)-yl)-1-cyclohexyl-2-oxoethyl)-5-(pyrimidin-4-yl)thiazole-2-carboxamide] | 48 nM | 32% | 4.6 | 220 nM |  | 
Cc1nnccc1-c1ccc(C(=O)N[C@H](C(=O)N2C[C@H](Cl)[C@H]3OCC(=O)[C@H]32)C2CCCCC2)s1 [Example 58, N-((S)-2-((3aS,6S,6aS)-6-chloro-3-oxotetrahydro-2H-furo[3,2-b]pyrrol-4(5H)-yl)-1-cyclohexyl-2-oxoethyl)-5-(3-methylpyridazin-4-yl)thiophene-2-carboxamide] | 34 nM | 21% | 1.5 | 51 nM |  | 
C[S+]([O-])c1cnnc(-c2ccc(C(=O)N[C@H](C(=O)N3C[C@H](Cl)[C@H]4OCC(=O)[C@H]43)C3CCCCC3)s2)c1 (stereo partly drawn) [Example 76, N-((S)-2-((3aS,6S,6aS)-6-chloro-3-oxotetrahydro-2H-furo[3,2-b]pyrrol-4(5H)-yl)-1-cyclohexyl-2-oxoethyl)-5-(5-(methylsulfinyl)pyridazin-3-yl)thiophene-2-carboxamide] | 30 nM | 19% | 1.0 | 29 nM |  | 
O=C(N[C@H](C(=O)N1C[C@H](Cl)[C@H]2OCC(=O)[C@H]21)C1CCCCC1)c1ncc(-c2ccncc2F)s1 [Example 50, N-((S)-2-((3aS,6S,6aS)-6-chloro-3-oxotetrahydro-2H-furo[3,2-b]pyrrol-4(5H)-yl)-1-cyclohexyl-2-oxoethyl)-5-(3-fluoropyridin-4-yl)thiazole-2-carboxamide] | 11 nM | 15% | 66.6 | 733 nM |  | 
O=C(N[C@H](C(=O)N1C[C@H](Cl)[C@H]2OCC(=O)[C@H]21)C1CCCCC1)c1ncc(-c2ccnnc2)s1 [Example 18, N-((S)-2-((3aS,6S,6aS)-6-chloro-3-oxotetrahydro-2H-furo[3,2-b]pyrrol-4(5H)-yl)-1-cyclohexyl-2-oxoethyl)-5-(pyridazin-4-yl)thiazole-2-carboxamide] | 31 nM | 15% | 1.2 | 37 nM |  | 
Cc1ccnnc1-c1ccc(C(=O)N[C@H](C(=O)N2C[C@H](Cl)[C@H]3OCC(=O)[C@H]32)C2CCCCC2)s1 [Example 84, N-((S)-2-((3aS,6S,6aS)-6-chloro-3-oxotetrahydro-2H-furo[3,2-b]pyrrol-4(5H)-yl)-1-cyclohexyl-2-oxoethyl)-5-(4-methylpyridazin-3-yl)thiophene-2-carboxamide] | 16 nM | 6% | 21.8 | 358 nM |  | 
O=C(N[C@H](C(=O)N1C[C@H](Cl)[C@H]2OCC(=O)[C@H]21)C1CCCCC1)c1sc(-c2cccnc2)cc1F [Example 65, N-((S)-2-((3aS,6S,6aS)-6-chloro-3-oxotetrahydro-2H-furo[3,2-b]pyrrol-4(5H)-yl)-1-cyclohexyl-2-oxoethyl)-3-fluoro-5-(pyridin-3-yl)thiophene-2-carboxamide] | 551 nM | 5% | 1.2 | 646 nM |  | 
O=C(N[C@H](C(=O)N1C[C@H](Cl)[C@H]2OCC(=O)[C@H]21)C1CCCCC1)c1ncc(-c2cnccn2)s1 [Example 48, N-((S)-2-((3aS,6S,6aS)-6-chloro-3-oxotetrahydro-2H-furo[3,2-b]pyrrol-4(5H)-yl)-1-cyclohexyl-2-oxoethyl)-5-(pyrazin-2-yl)thiazole-2-carboxamide] | 14 nM | 7% | 17.3 | 242 nM |  | 

Continued by falling Ki [1], values first:

Ki [1] | inhibition at 31.6 µM [2] | Selectivity Ki(hCatS)/Ki(hCatK) [3] | Ki [3] | inhibition at 10 µM ([1]; read-out: hCatK, inhibition [%] at 10 μM) | inhibition at 10 µM [3] | SMILES
10 nM | 28% | 7.2 | 72 nM |  |  | Cc1ncc(-c2ccc(C(=O)N[C@H](C(=O)N3C[C@H](Cl)[C@H]4OCC(=O)[C@H]43)C3CCCCC3)s2)cn1 [Example 30, N-((S)-2-((3aS,6S,6aS)-6-chloro-3-oxotetrahydro-2H-furo[3,2-b]pyrrol-4(5H)-yl)-1-cyclohexyl-2-oxoethyl)-5-(2-methylpyrimidin-5-yl)thiophene-2-carboxamide]
9 nM | 24% | 14.3 | 129 nM |  |  | O=C(N[C@H](C(=O)N1C[C@H](Cl)[C@H]2OCC(=O)[C@H]21)C1CCCCC1)c1ncc(-c2ccnc(C3CC3)c2)s1 [Example 82, N-((S)-2-((3aS,6S,6aS)-6-chloro-3-oxotetrahydro-2H-furo[3,2-b]pyrrol-4(5H)-yl)-1-cyclohexyl-2-oxoethyl)-5-(2-cyclopropylpyridin-4-yl)thiazole-2-carboxamide]
8 nM | 24% | 1.1 | 9 nM |  |  | Cc1cc(-c2ccc(C(=O)N[C@H](C(=O)N3C[C@H](Cl)[C@H]4OCC(=O)[C@H]43)C3CCCCC3)s2)cnn1 [Example 69, N-((S)-2-((3aS,6S,6aS)-6-chloro-3-oxotetrahydro-2H-furo[3,2-b]pyrrol-4(5H)-yl)-1-cyclohexyl-2-oxoethyl)-5-(6-methylpyridazin-4-yl)thiophene-2-carboxamide]
5 nM | 14% | 1.1 | 6 nM |  |  | CCc1cc(-c2ccc(C(=O)N[C@H](C(=O)N3C[C@H](Cl)[C@H]4OCC(=O)[C@H]43)C3CCCCC3)s2)cnn1 [Example 85, N-((S)-2-((3aS,6S,6aS)-6-chloro-3-oxotetrahydro-2H-furo[3,2-b]pyrrol-4(5H)-yl)-1-cyclohexyl-2-oxoethyl)-5-(6-ethylpyridazin-4-yl)thiophene-2-carboxamide]
1 nM | 25% | 16.7 | 24 nM |  |  | CCc1cc(-c2ccc(C(=O)N[C@H](C(=O)N3C[C@H](Cl)[C@H]4OCC(=O)[C@H]43)C3CCCCC3)s2)ccn1 [Example 86, N-((S)-2-((3aS,6S,6aS)-6-chloro-3-oxotetrahydro-2H-furo[3,2-b]pyrrol-4(5H)-yl)-1-cyclohexyl-2-oxoethyl)-5-(2-ethylpyridin-4-yl)thiophene-2-carboxamide]
